Here are results for three molecules from patent publication US8790675B2, “Biocide compositions comprising carbamates” (priority 2009, dated 2014).

The data set can be described thus: Solubility of biocides in solvents at 25° C. The note with it: for Solubility of biocides: Tebucanozole: Tebucanozole dissolved in the solvent, 25° C. The protocol:
Solubility of two fungicides, one herbicide and two insecticides in different dialkyl amides at 25° C. was tested.

Take `CN(C)C(=O)OCCO` [Example 5]: for the setting “wide range of biocides, versus state-of-the-art solvents”, the “able to dissolve or disperse a wide range of biocides better than solvents known from the state of the art” value was determined as 20%.
For the molecule `CCCCNC(=O)OCCO` [Example 7], the “Solubility of biocides: Tebucanozole” value is recorded as 20 % b.w.
With `CCCNC(=O)OCCO` [Example 8], the “Solubility of biocides: Tebucanozole” value is reported as 23 % b.w.
